Measurements taken from patent US9649294B2, “Glucagon receptor antagonist compounds, compositions containing such compounds and methods of use” (Merck Sharp & Dohme Corp., priority 2013, dated 2017).

Experiments:
[1] = Pharmacokinetic study in rat; type: in vivo, rats; conditions: for MRT / half-life: PK study (IV 1 mg/kg, oral 2 mg/kg); for MRT: read-out: MRT, mean residence time; for half-life: read-out: T1/2, terminal half-life (converted)
Method: (§1) Intravenous (IV) PK studies were conducted at a dose of 1 mg/kg in hGCGR mice and rats and 0.5 mg/kg in dogs and rhesus monkeys. The IV doses were formulated in ethanol:PEG400:water (20:30:50 v/v/v). Oral PK studies were conducted at a dose of 2 mg/kg in mice, rats, dogs and monkeys. The oral doses were formulated in ethanol:PEG400:water (20:30:50 v/v/v) for dosing in mice and rats and in 0.5% methylcellulose in dogs and monkeys.
(§2) Plasma was prepared for analysis by protein precipitation with acetonitrile. Plasma concentrations were determined by LC-MS/MS using ABI Sciex API 4000 or 5000 mass spectrometers operated in atmospheric pressure chemical ionization mode with multiple-reaction monitoring.
(§3) Pharmacokinetic parameters were calculated with a non-compartmental model using Watson software (Watson Software, Thermo Fisher, Waltham, Mass., USA). The area under the plasma concentration versus time curve from 0 to 24 h (AUC0-24) was determined using linear trapezoidal interpolation in the ascending slope and logarithmic trapezoidal interpolation in the descending slope. The portion of the AUC from the last measurable concentration to infinity ([…]) was estimated by Ct/kel, where Ct represents the last measurable concentration and kel is the elimination rate constant. The latter was determined from the concentration versus time curve at the terminal phase by linear regression of the semilogarithmic plot. Oral bioavailability (F) was estimated as the AUC0-inf ratio following oral and i.v. administration normalized for differences in dose. The apparent half-life (t1/2) was estimated from the slope of the terminal phase of the log plasma concentration-time curve. MRT, the average time a compound molecule resides in the body, is calculated with the following equation: MRT=AUMC/AUC. In this equation AUMC is the area under the first moment curve and is determined as the area under the curve of a plot of the product of concentration and time versus time. AUC is equal to AUC0-inf.

[2] = Pharmacokinetic study in rhesus monkey; type: in vivo, rhesus monkeys; conditions: for MRT / half-life: PK study (IV 0.5 mg/kg, oral 2 mg/kg); for MRT: read-out: MRT, mean residence time; for half-life: read-out: T1/2, terminal half-life (converted)
Method: as §1, §2, §3

[3] = Pharmacokinetic study in mouse; type: in vivo, hGCGR mice; conditions: for MRT / half-life: PK study (IV 1 mg/kg, oral 2 mg/kg); for MRT: read-out: MRT, mean residence time; for half-life: read-out: T1/2, terminal half-life (converted)
Method: as §1, §2, §3

[4] = Pharmacokinetic study in dog; type: in vivo, dogs; conditions: for MRT / half-life: PK study (IV 0.5 mg/kg, oral 2 mg/kg); for MRT: read-out: MRT, mean residence time; for half-life: read-out: T1/2, terminal half-life (converted)
Method: as §1, §2, §3

human glucagon receptor [5] = target: T1, human glucagon receptor (Homo sapiens, UniProt P47871); assay: Glucagon receptor binding assay (125I-glucagon, SPA, CHO cell membranes); conditions: CHO cell membranes expressing cloned human glucagon receptor
T1 construct: expressed in transfected cells; host or cells: CHO cells
Method: A stable CHO (Chinese hamster ovary) cell line expressing cloned human glucagon receptor was maintained as described (Chicchi et al. J Biol Chem 272, 7765-9(1997); Cascieri et al. J_Biol Chem 274, 8694-7(1999)). […] After 4-12 hours incubation at room temperature, the radioactivity bound to the cell membranes was determined in a radioactive emission detection counter (Wallac-Microbeta). Data was analyzed using the software program Prism from GraphPad. IC50 values were calculated using non-linear regression analysis assuming single site competition.

human glucagon receptor [6] = target: T1, human glucagon receptor; assay: Inhibition of glucagon-stimulated intracellular cAMP formation; type: cell-based; conditions: CHO cells expressing human glucagon receptor; glucagon 250 pM
Method: Exponentially growing CHO cells expressing human glucagon receptor were harvested with the aid of enzyme-free dissociation media (Specialty Media), pelleted at low speed, and re-suspended in the Cell Stimulation Buffer included in the Flash Plate cAMP kit (New England Nuclear, SMP0004A). The adenylate cyclase assay was setup as per manufacturer instructions. Briefly, compounds were diluted from stocks in DMSO and added to cells at a final DMSO concentration of 5%. Cells prepared as above were preincubated in flash plates coated with anti-cAMP antibodies (NEN) in presence of compounds or DMSO controls for 30 minutes, and then stimulated with glucagon (250 pM) for an additional 30 minutes. The cell stimulation was stopped by addition of equal amount of a detection buffer containing lysis buffer as well as ^125I-labeled cAMP tracer (NEN). After 3 hours of incubation at room temperature the bound radioactivity was determined in a liquid scintillation counter (TopCount-Packard Instruments). Basal activity (100% inhibition) was determined using the DMSO control while 0% inhibition was defined at the amount of pmol cAMP produced by 250 pM glucagon.

T1 sequence (P47871 26-477): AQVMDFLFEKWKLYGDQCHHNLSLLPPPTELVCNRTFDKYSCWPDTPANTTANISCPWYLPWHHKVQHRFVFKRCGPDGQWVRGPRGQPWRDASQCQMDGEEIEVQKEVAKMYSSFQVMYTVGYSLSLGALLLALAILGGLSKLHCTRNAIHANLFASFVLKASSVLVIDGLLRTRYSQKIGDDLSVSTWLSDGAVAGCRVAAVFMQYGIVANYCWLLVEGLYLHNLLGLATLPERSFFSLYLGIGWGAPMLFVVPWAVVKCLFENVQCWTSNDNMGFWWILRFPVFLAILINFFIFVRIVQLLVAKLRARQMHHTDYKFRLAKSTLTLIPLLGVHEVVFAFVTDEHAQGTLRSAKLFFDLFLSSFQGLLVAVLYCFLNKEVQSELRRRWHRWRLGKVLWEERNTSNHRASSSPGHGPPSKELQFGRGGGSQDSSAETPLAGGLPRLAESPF

For `CCC[C@H](c1ccc(C(=O)NCCC(=O)O)cc1)[C@H](c1ccc(Cl)cc1)c1c[nH]c2c(F)cc(C)cc12` [MK3577, reference compound], the MRT ([1]; plasma) was 0.9 h, the half-life ([1]; plasma) was 1.4 h and the MRT ([2]; rhesus monkey, plasma) was 3.2 h. For the same compound, the half-life ([2]; rhesus monkey, plasma) was 5.1 h, the MRT ([3]; hGCGR, plasma) was 2.2 h and the half-life ([3]; hGCGR, plasma) was 2.8 h. For the same compound, the MRT ([4]; plasma) was 5.2 h and the half-life ([4]; plasma) was 4.9 h.

With `CCC[C@H](c1ccc(C(=O)NCCC(=O)O)cc1)[C@H](c1ccc(OC(F)(F)F)cc1)c1c[nH]c2c(F)cc(Cl)cc12` [Example 1, 3-(4-((1R,2S)-1-(5-Chloro-7-Fluoro-1H-Indol-3-yl)-1-(4-(Trifluoromethoxy)Phenyl)Pentan-2-yl)Benzamido)Propanoic Acid] the IC50 (human glucagon receptor [5]) was 0.24 nM, the “MRT compared to MK-3577” value [1] was “over 3 fold” and the “T1/2 longer compared to MK-3577” value [1] was roughly 1.5 fold. The “Oral AUCnorm(0-∞)” value ([1]; oral 2 mg/kg, dose-normalized) was 1.2 µM·kg·h/mg, the clearance ([1]; plasma, IV 1 mg/kg, read-out: Clp, plasma clearance) was 18 mL/min/kg and the Vd ([1]; plasma, IV 1 mg/kg, read-out: Vdss, volume of distribution at steady state) was 3.2 L/kg. For the same compound, the MRT ([1]; plasma) was 2.9 h, the half-life ([1]; plasma) was 2.2 h and the bioavailability ([1]; plasma, oral 2 mg/kg vs IV 1 mg/kg, read-out: F, oral bioavailability) was 76%. The IC50 (human glucagon receptor [6]) was 19.2 nM, the “MRT longer compared to MK-3577” value [2] was roughly 3.4 fold and the “T1/2 longer compared to MK-3577” value [2] was roughly 2.2 fold. For the same compound, the “Oral AUCnorm(0-∞)” value ([2]; oral 2 mg/kg, dose-normalized) was 6 µM·kg·h/mg, the clearance ([2]; rhesus monkey, plasma, IV 0.5 mg/kg, read-out: Clp, plasma clearance) was 3 mL/min/kg and the Vd ([2]; rhesus monkey, plasma, IV 0.5 mg/kg, read-out: Vdss, volume of distribution at steady state) was 2 L/kg. It also gave an MRT ([2]; rhesus monkey, plasma) of 11 h, a half-life ([2]; rhesus monkey, plasma) of 11 h and a bioavailability ([2]; rhesus monkey, plasma, oral 2 mg/kg vs IV 0.5 mg/kg, read-out: F, oral bioavailability) of 47%. The “MRT compared to MK-3577” value [3] was roughly 4.5 fold, the “T1/2 longer compared to MK-3577” value [3] was roughly 2.9 fold and the clearance ([3]; hGCGR, plasma, IV 1 mg/kg, read-out: Clp, plasma clearance) was 3.5 mL/min/kg. It also gave a Vd ([3]; hGCGR, plasma, IV 1 mg/kg, read-out: Vdss, volume of distribution at steady state) of 2.2 L/kg, an MRT ([3]; hGCGR, plasma) of 10 h and a half-life ([3]; hGCGR, plasma) of 8.2 h. The bioavailability ([3]; hGCGR, plasma, oral 2 mg/kg vs IV 1 mg/kg, read-out: F, oral bioavailability) was 87%, the “Oral AUCnorm(0-∞)” value ([3]; oral 2 mg/kg, dose-normalized) was 8.0 µM·kg·h/mg and the “MRT longer compared to MK-3577” value [4] was “ca. 3.8 fold”. The “T1/2 longer compared to MK-3577” value [4] was “ca. 3.3 fold”, the “Oral AUCnorm(0-∞)” value ([4]; oral 2 mg/kg, dose-normalized) was 16 µM·kg·h/mg and the clearance ([4]; plasma, IV 0.5 mg/kg, read-out: Clp, plasma clearance) was 0.63 mL/min/kg. For the same compound, the Vd ([4]; plasma, IV 0.5 mg/kg, read-out: Vdss, volume of distribution at steady state) was 0.72 L/kg, the MRT ([4]; plasma) was 20 h and the half-life ([4]; plasma) was 16 h. It also gave a bioavailability ([4]; plasma, oral 2 mg/kg vs IV 0.5 mg/kg, read-out: F, oral bioavailability) of 30%.
